{
  "source": "patent US20040214270A1",
  "about": "“Isocitrate dehydrogenase, gene thereof, and use of the same in the treatment of obesity, hyperlipidemia, and fattly liver in lipid biosynthesis” (priority 2000, published 2004)",
  "key": {"[1]": {"test_system": "NIH3T3 L1 cells into which only pLNCX vector was introduced", "test": "Differentiation of adipocytes and oil deposition according to concentration of NADPH (Oil-Red-O)", "assay_type": "cell-based, mouse", "method": "To examine the influence of IDPc on the synthesis of fatty acids, the transfectant cell lines were cultured in 10% FBS-supplemented DMEM containing insulin 5 μg/ml, 0.5 mM 3-isobutyl-1-methylxanthine (IBMX, Sigma), 1 μM dexamethasone (DEX), and penicillin-streptomycin (Gibco BRL), each 50,000 units, for two days to increase the counts of the cells to a density of approximately 3×10^4 cells/cm^2. Thereafter, the cells were further cultured for 12 days in DMEM free of IBMX and DEX while the medium was refreshed every other day. Cell culturing was carried out in a CO2 incubator at 37° C. under a wet, 5% CO2 atmosphere.\nAfter culturing, the cells were treated with Oil-Red-O, which specifically dyes oil, to observe oil deposits formed in adipocytes. In this connection, the medium was depleted, after which 10 ml of a cacodylate buffer (90 mM cacodylate, pH 7.2, 2% formaldehyde, 2.5% glutaraldehyde, 0.025% CaCl2, 5% sucrose) was added to the cells, which was then allowed to stand at 4° C. for 1 hour. After removal of the buffer, 5 ml of Oil-Red-O in 40% isopropanol was added to the cells and slowly mixed over 1 hour, followed by washing with 40% isopropanol.\nThe effect of NADPH, a metabolic product of IDPc, on the deposition of cellular oils was quantitatively measured with Oil-Red-O, a dye specific for lipids. […]"}, "isocitrate dehydrogenase": {"target": "isocitrate dehydrogenase (Mus musculus, UniProt O88844)", "sequence (O88844 whole entry)": "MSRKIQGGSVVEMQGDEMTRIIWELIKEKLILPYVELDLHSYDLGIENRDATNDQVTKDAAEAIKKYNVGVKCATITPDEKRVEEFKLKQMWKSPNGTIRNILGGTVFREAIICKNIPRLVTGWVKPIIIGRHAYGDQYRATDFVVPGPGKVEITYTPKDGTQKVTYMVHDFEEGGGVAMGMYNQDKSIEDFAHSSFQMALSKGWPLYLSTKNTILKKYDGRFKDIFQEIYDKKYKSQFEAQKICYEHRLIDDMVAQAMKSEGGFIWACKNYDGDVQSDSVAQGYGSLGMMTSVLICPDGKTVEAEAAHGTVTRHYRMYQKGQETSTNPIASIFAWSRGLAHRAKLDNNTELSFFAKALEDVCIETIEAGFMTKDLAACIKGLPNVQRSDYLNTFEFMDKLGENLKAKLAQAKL", "test": "Screening of inhibitors against isocitrate dehydrogenase (spectrophotometry, absorbance at 340 nm)", "assay_type": "biochemical", "details": "change in absorbance at 340 nm with time, 25° C.", "method": "In this connection, spectrophotometry is very useful. In more detail, first, a spectrophotometer is adjusted to zero absorbance at 340 nm using a mixture of a ten-fold concentrated reaction buffer plus 3rd distilled water. After a crystal cuvette containing the 10× buffer, a test sample and 3rd distilled water is installed in the spectrophotometer, isocitrate dehydrogenase is added to the cuvette and a measurement is made of the change in absorbance at 340 nm with time.\nBecause an absorbance decreases faster in the cuvette containing a greater concentration of a sample inhibitory against the activity of the enzyme, the analysis of the spectrophotometric data enables the screening of inhibitors of isocitrate dehydrogenase.\nAn assay buffer (50 mM MOPS, pH 7.2, 35.5 mM triethanolamine, pH 7.2, 2 mM NADP^+, 2 mM MgCl2, 5 mM isocitrate, rotenone 1 mg/ml) and test samples were all prepared at 10× concentration. Enzymatic reactions necessary for the selection were conducted in a final volume of 1 ml at 25° C. in crystal cuvette. For use, the concentrated test samples were diluted with 3rd distilled water. The assay buffer, enzyme inhibitors, and isocitrate dehydrogenase, which all at 10× concentration, were maintained at low temperature, i.e., in ice.\nA spectrophotometer was first subjected to null adjustment at 340 nm using the 10× assay buffer and 3rd distilled water. 100 μl of the sample was added, along with 100 μl of the 10× assay buffer, in a crystal cuvette, and mixed with 600 μl of 3rd distilled water. After the completion of the null adjustment, the sample cuvette was installed in the spectrophotometer, followed by adding 200 μl of isocitrate dehydrogenase and mixing the solution with the aid of a pipette. Changes in absorbance at 340 nm were monitored with time. In principle, an absorbance decreases faster in the cuvette containing a greater concentration of a sample inhibitory against the activity of the enzyme. Based on this principle, the quantification of the spectrophotometric data enabled the screening of inhibitors of isocitrate dehydrogenase."}, "3T3-L1 cells": {"test_system": "3T3-L1 cells", "test": "Prevention of oil deposition in 3T3-L1 by isocitrate dehydrogenase inhibitor (Oil-Red-O)", "assay_type": "cell-based, mouse", "details": "cells treated with inhibitor vs no isocitrate inhibitors, FIG. 9", "text": "After being treated with the isocitrate dehydrogenase inhibitors methyl isocitric acid and oxalomalic acid, 3T3-L1 cells, which remain undifferentiated, were examined for their differentiation to adipocytes. Effects of the isocitrate dehydrogenase inhibitors on fatty acid synthesis could be identified through the visualization using Oil-Red-O, a oil-specific dye."}, "rats": {"test_system": "rats", "test": "Restrictive effect of isocitrate dehydrogenase inhibitor on obesity in rats", "assay_type": "in vivo, rat", "method": "26 weeks after birth, rats were compared for cellular lipid deposition when they were treated with no isocitrate dehydrogenase inhibitors and methyl isocitric acid.\nA container suitable for receiving a rat was placed on a scale which was then subjected to null adjustment, after which a rat was carefully put in the container.\nThe livers and adipose tissues taken from inhibitor-administered rats and non-administered rats were homogenized in a buffer (0.32 M sucrose, 0.01 M Tris-Cl pH 7.4) and centrifuged at 3,000×g for 10 min. Again, the supernatant was centrifuged at 10,000×g for 15 min. A pure cytosolic fraction was obtained as the supernatant. The enzyme activity of IDPc was determined by measuring the change in the production amount of NADPH in a buffer (50 mM MOPS, pH 7.2, 35.5 mM triethanolamine, pH 7.2, 2 mM NADP^+, 2 mM MgCl2, 5 mM isocitrate, and rotenone 1 μg/ml) maintained at 25° C. Using a spectrophotometer, absorbance at 340 nm was measured for 2 min to quantify the amount of NADPH produced by the IDPc contained in the cytoplasmic protein, thereby determining the enzyme activity of IDPc. For the quantification of the enzyme, the amount which produced 1 μM of NADPH in 1 min was defined as 1 unit. Protein quantification was performed according to the Bradford assay.\nIn order to measure the blood triglyceride levels and total cholesterol, assay kits manufactured by Asan Pharmaceutics. Co. Ltd. were used. After being treated with an anti-coagulant, blood taken from the inhibitor-administered rats and non-administered rats was centrifuged to obtain sera. 10 μl of each of the sera was mixed with 1.5 ml of a triglyceride-assay kit [a solution of lipoproteinase 10800 U, glycerol kinase 5.4 U, peroxidase 135000 U, and L-α-glycerophosphate oxidase 160 U in 72 ml of N,N-bis(2-hydroxyethyl)-2-aminomethanesulfonic acid buffer] or 1.5 ml of a cholesterol enzyme-assay kit (a mixture of an enzyme solution (cholesterol esterase 20.5 KU/l, cholesterol oxidase 10.7 KU/l, and sodium hydroxide 1.81 g/l) and a buffer (potassium monophosphate 13.6 g/l, phenol 1.88 g/l) in the proportions of 1:1) and incubated at 37° C. for 5 min for reaction. In a microplate reader, a measurement was done by reading absorbance at 500 nm for cholesterol and at 540 nm for triglyceride, so as to quantify blood levels of triglyceride and total cholesterol. In connection to the quantification of triglyceride and cholesterol, there was utilized a standard curve which was obtained by applying the above procedure to various known concentrations of a standard solution.\nA predetermined amount of the liver was taken from both the inhibitor-administered mice and non-administered mice and homogenized in 1 ml of CIAA (chloroform:isoamyl alcohol=2:1 v/v). 100 μl of the homogenate was dissolved in 200 μl of pure ethyl alcohol and mixed with 500 μl of each of the assay kits for triglyceride and cholesterol, manufactured by Asan Pharmaceutics, Co. Ltd., containing 0.5% Triton X-100 and 3 mM sodium cholate, followed by incubation at 37° C. for 10 min. After being added with 800 μl of water, each sample was measured for liver triglyceride and total cholesterol levels with the aid of a microplate reader in the same manner as in above. Likewise, the above procedure was applied to various known concentrations of a standard solution to acquire a standard curve which was used to quantify triglyceride and cholesterol levels in the liver."}},
  "note": "“Also recorded” adds a separate entry of the source.",
  "data": [
    {"molecule": "NC(=O)C1=CN([C@@H]2O[C@H](COP(=O)(O)OP(=O)(O)OC[C@H]3O[C@@H](n4cnc5c(N)ncnc54)[C@H](OP(=O)(O)O)[C@@H]3O)[C@@H](O)[C@H]2O)C=CC1", "note": "[NADPH]", "values": [
      {"measurement": "oil deposits formed within cells (Oil-Red-O)", "setting": "[1]; NADPH added at 0 μM, 25 μM and 50 μM to the media during differentiation into adipocytes", "result": "accumulated greater amounts of oils; also recorded: larger intracellular lipid deposits"},
      {"measurement": "differentiation of adipocytes", "setting": "[1]; differentiated in the presence of NADPH, increasing concentration", "result": "direct positive influence on the differentiation of adipocytes; also recorded: higher differentiation rates"}
    ]},
    {"molecule": "CC(NC(C)(C)C)C(=O)c1cccc(Cl)c1", "note": "(stereo not shown) [bupropion]", "values": [
      {"measurement": "inhibitory activity against isocitrate dehydrogenase", "setting": "isocitrate dehydrogenase", "result": "only a little inhibitory activity; also recorded: a little inhibitory effect"}
    ]},
    {"molecule": "CC(O)(C(=O)O)C(CC(=O)O)C(=O)O", "note": "(stereo not shown) [methyl isocitric acid]", "values": [
      {"measurement": "inhibitory activity against isocitrate dehydrogenase", "setting": "isocitrate dehydrogenase", "result": "strong inhibitory activity; also recorded: definite inhibitory activity"},
      {"measurement": "cellular oil deposits dyed with Oil-Red-O", "setting": "3T3-L1 cells", "result": "reducing cellular oil deposits"},
      {"measurement": "arteriosclerosis index, lower", "setting": "rats", "result": 10},
      {"measurement": "body weight, inhibitor-administered vs non-administered rats", "setting": "rats; 10-weeks old", "result": "No significant difference"},
      {"measurement": "weight of epididymal fat pad, lower compared to non-administered rats", "setting": "rats; FIG. 10a", "result": "about 12%"},
      {"measurement": "weight of the liver, inhibitor-administered vs normal rats", "setting": "rats; FIG. 10a", "result": "no difference"},
      {"measurement": "blood level of total cholesterol, lower compared to non-administered rats", "setting": "rats; FIG. 10b", "result": 11, "unit": "%"},
      {"measurement": "blood level of triglyceride, lower compared to non-administered rats", "setting": "rats; FIG. 10b", "result": 20, "unit": "%"},
      {"measurement": "high-density lipoproteins (HDL) level, higher compared to non-administered rats", "setting": "rats; blood, FIG. 10c", "result": 11, "unit": "%"}
    ]},
    {"molecule": "NC(=O)c1cccnc1", "note": "[nicotine amide]", "values": [
      {"measurement": "inhibitory activity against isocitrate dehydrogenase", "setting": "isocitrate dehydrogenase", "result": "No inhibitory activity"}
    ]},
    {"molecule": "O=C(O)c1cccnc1", "note": "[nicotinic acid]", "values": [
      {"measurement": "inhibitory activity against isocitrate dehydrogenase", "setting": "isocitrate dehydrogenase", "result": "No inhibitory activity"}
    ]},
    {"molecule": "O=C(O)C(=O)C(C(=O)O)C(O)C(=O)O", "note": "(stereo not shown) [oxalomalic acid]", "values": [
      {"measurement": "inhibitory activity against isocitrate dehydrogenase", "setting": "isocitrate dehydrogenase", "result": "strong inhibitory activity; also recorded: definite inhibitory activity"},
      {"measurement": "cellular oil deposits dyed with Oil-Red-O", "setting": "3T3-L1 cells", "result": "reducing cellular oil deposits"}
    ]}
  ]
}
